Measurements taken from patent publication US20170095496A1, “GALACTOSIDE INHIBITORS FOR NEW USES” (GALECTO BIOTECH AB, priority 2014, published 2017).
“Also recorded” adds a separate entry of the source.

Experiments:
galectins = conditions: compared with N-acetyllactosamine; cited from earlier work
BV2 microglial cells [1] = test: Phagocytic assay (uptake of IgG-FITC beads) in α-synuclein-activated BV2 microglia; format: cell-based, Murine; conditions: for phagocytic ability on adding galectin-3 protein: BV2 cells, 12 h
Method: We measure microglial phagocytosis using a phagocytosis assay kit (Cayman Chem, USA) according to the protocol provided by the manufacturer's. We plated 5×10^4 cells/well in 96 well plates for 12 h before treating the cells with α-synuclein 20 μM for additional 12 h. Thereafter IgG-FITC beads we added with or without galectin-3 inhibitor for 12 h. The phagocytic ability was analyzed by a fluorescent plate reader (FluoStar Optima, BMG, LabTech, Sweden).
To test the implication of galectin-3 on phagocytic ability of microglial cells in our model of α-synuclein induced activation, we pre-treated the cells with 100 μM of galectin-3 inhibitor for 30 min and subsequently treated them with α-synuclein aggregates or combining both for 12 h. Microglial cells activated with α-synuclein show high phagocytic activity (FIG. 4).

BV2 cells = test: XTT viability assay; format: cell-based, Murine; conditions: alone or in combination with α-synuclein aggregates; data not shown
Method: To test if the α-synuclein, the galectin-3 inhibitor, or both, are toxic for BV2 cells in different conditions, we used an in vitro viability assay kit based on a XTT (Sigma-Aldrich) reduction spectrophotometric method to estimate the mitochondrial activity in living cells. The assay was performed following manufacturer's protocol provided in the kit. The absorbance was measured by spectrophotometrically using a plate reader.

BV2 microglial cells [2] = test: iNOS expression by western blot in BV2 microglia activated with α-synuclein; format: cell-based, Murine; conditions: for down regulation of iNOS expression: α-synuclein aggregates 20 μM; for inhibition of iNOS expression induced by α-synuclein monomers: inhibitor 30 min pre-treatment, monomers 20 μM
Method: Murine (microglial cell line (BV2 cells)) was culture in Dulbecco's modified Eagle's medium (DMEM) containing 10% Fetal Bovine Serum (Invitrogen) with 100 U/ml Penicillin and 100 U/ml Streptomycin (Invitrogen) in 5% CO2 atmosphere at 37° C. One day before BV2 were seeded at a concentration of 2×10^5 cells/well in 24 wells plate (Nunc). The BV2 cells were treated with α-synuclein monomers and aggregates at different concentrations: 5 μM, 10 μM and 20 μM. The cells were also treated with LPS (Sigma-Aldrich) at 1 μg/ml. All the treatments were conducted for 12 h.
We used a small inhibitory molecule for galectin-3 activity, bis-{3-deoxy-3-[4-(3-fluorophenyl)-1H-1,2,3-triazol-1-yl]-β-D-galactopyranosyl} sulfane (Mackinnon et al., 2012, Volarevic et al., 2012, Saksida et al., 2013). This inhibitor was used as pre-treatment for 30 min throughout the study, except in the phagocytic assay when we used 12 h incubation time. To test the inhibitor ability alter α-synuclein-induced inflammation, we tested different concentration, from 5 μM to 100 μM. After 30 min pre-treatment with the inhibitor, we add the treatments of α-synuclein monomers or aggregates of at different concentration for 12 h. The inhibitor is dilute in DMSO (40%) and distilled water (60%) in a stock concentration of 4 mM.
Transfection of BV2 cells was carried out using Lipofectamine 2000 (Invitrogen) following the manufacturer's recommendation. Non-targeting control and galectin-3 siRNAs were obtained from Dharmacon. (SMART pool) siRNA sequence used: siLGal3S3(1) J-041097-09 GAGAGAUACCCAUCGCUUU (SEQ ID NO:4), siLGal3S3(2) J-041097-10 ACUUCAAGGUUGCGGUCAA (SEQ ID NO:5), siLGal3S3(3) J-041097-11 ACAGUGAAACCCAACGCAA (SEQ ID NO:6), siLGal3S3(4) J-041097-12 GGAUGAAGAACCUCCGGGA (SEQ ID NO:7).
Western blot was performed for iNOS and galectin-3 protein levels for BV2 microglial cell or for primary microglial cells. Briefly, 5 or 10 μg of proteins of sample were loaded on 4-20% Mini-Protean TGX Precast Gels (Bio-Rad) and the transferred to Nitrocellulose membrane (Bio-Rad) using Trans-Blot Turbo System (Bio-Rad). We blocked the membrane during 1 h at room temperature with 10% Casein (Sigma-Aldrich) diluted in PBS (tablets, Sigma-Aldrich). After blocking we incubate with the primary appropriate antibody at 4° C. overnight. We clean the membranes with PBS-Tween 20 (0.1%) and then incubate during 2 h at room temperature with the appropriate peroxidase secondary antibody (Vector Labs). Each blot was developed using Clarity Western ECL Substrate (Biorad). The protein level, measured by Bradford assay (Thermo Scientific), was normalized correcting the protein level with β-Actin. The results were normalized to the highest concentration used (20 μM) in each experiment in order to normalize inflammatory response. We also used Western Blot to estimate the composition of the α-synuclein aggregates that we generated from monomeric α-synuclein.
Next, we wanted to assess the role of galectin-3 inhibition in α-synuclein-induced activation of microglial cells. To this end, microglial cells were pretreated with the galectin-3 inhibitor at different concentrations (5, 25, 50 and 100 μM), for 30 min, then the cells were washed to remove the inhibitor to further treat them with α-synuclein monomers or aggregates (20 μM) for 12 h whereafter the iNOS protein expression levels were analyzed. […] Indeed, more than 50% down regulation of iNOS expression was found at 50 and 100 μM inhibitor treatment.
To further test the role of galectin-3 in microglial activation, we decided to knockdown galectin-3 expression in BV2 cells using small interferring RNA (siRNA). Galectin-3 and siRNA negative control knocked-down cells were treated with α-synuclein aggregates (20 μM) for 12 h and their iNOS expression levels were compared using western blot analysis. […] Western blot analysis showing iNOS and β-actin protein levels.

Compound: OC[C@H]1O[C@@H](S[C@@H]2O[C@H](CO)[C@H](O)[C@H](O)[C@H]2O)[C@H](O)[C@@H](O)[C@H]1O [thiodigalactoside]
- efficiency as galectin inhibitor (galectins): approximately as efficient as N-acetyllactosamine

Compound: OC[C@H]1O[C@@H](S[C@@H]2O[C@H](CO)[C@H](O)[C@H](n3cc(-c4cccc(F)c4)nn3)[C@H]2O)[C@H](O)[C@@H](n2cc(-c3cccc(F)c3)nn2)[C@H]1O [TD139, Bis-{3-deoxy-3-[4-(3-fluorophenyl)-1H-1,2,3-triazol-1-yl]-β-D-galactopyranosyl} sulfane]
- phagocytic ability (BV2 microglial cells [1]; 100 μM inhibitor as 30 min pre-treatment only): couldn't find any difference
- phagocytic ability (BV2 microglial cells [1]; 100 μM inhibitor combined with α-synuclein aggregates 20 μM for 12 h): reduced phagocytic ability; also recorded: robustly inhibited the phagocytosis
- phagocytic ability (BV2 microglial cells [1]; 100 μM inhibitor combined with α-synuclein aggregates 20 μM for 12 h, listed as galectin-3 inhibitor): robustly reduced to control levels
- cell viability (BV2 cells): does not negatively affect cell viability
- down regulation of iNOS expression (BV2 microglial cells [2]; 50 μM inhibitor, 30 min pre-treatment, 12 h): more than 50%
- down regulation of iNOS expression (BV2 microglial cells [2]; 100 μM inhibitor, 30 min pre-treatment, 12 h): more than 50%
- inhibition of iNOS expression induced by α-synuclein aggregates (BV2 microglial cells [2]; inhibitor 5, 25, 50 and 100 μM, 30 min pre-treatment, aggregates 20 μM, 12 h): significantly inhibited
- inhibition of iNOS expression induced by α-synuclein monomers (BV2 microglial cells [2]; 12 h): not significantly inhibited
- inhibition of iNOS expression induced by α-synuclein monomers (BV2 microglial cells [2]; 12 h, listed as galectin-3 inhibitor): not to monomers
- inflammatory response induced by α-synuclein (BV2 microglial cells [2]; summary statement, BV2 microglia): significant reduction

Compound: galectin-3 protein: galectin-3 protein added to microglial cells in the phagocytic assay
- phagocytic ability on adding galectin-3 protein (BV2 microglial cells [1]): increases the phagocytic ability to a similar extent as α-synuclein aggregates
- phagocytic ability on adding galectin-3 protein (BV2 microglial cells [1]; listed as galectin-3): recover the phagocytic ability
